Like-named read-outs stand apart in the source and are kept apart here.
Columns and labels:
VEGFR2 = VEGFR2 (Homo sapiens (Human), UniProt P35968); test: VEGF165 induced phosphorylation of VEGFR2 in endothelial cells (TeloHAEC, HTRF); format: cell-based; conditions: HAEC cells; n = 1 unless otherwise indicated
MRC5 cells = test: Cell viability assay in MRC5 cells (MTT)
[1] = Pharmacokinetic measurements in rats (intravenous and intra-tracheal dosing); format: in vivo; conditions: rat; for concentration at 0.1 h / concentration at 1.5 h / concentration at 24 h / concentration at 6 h: lung, read-out: lung concentration (nM) at time (h); for Kp at 0.1 h / Kp at 1.5 h / Kp at 24 h / Kp at 6 h: lung/plasma
[2] = Pharmacokinetic measurements in mice (intravenous and intra-nasal dosing); format: in vivo; conditions: mouse; for concentration at 6 h / concentration at 0.1 h / concentration at 1.5 h / concentration at 24 h / Kp at 6 h / Kp at 0.1 h / Kp at 1.5 h: male, C57BL/6J; for concentration at 6 h / concentration at 0.1 h / concentration at 1.5 h / concentration at 24 h: lung, read-out: lung concentration (nM) at time (h); for concentration at 6 h / concentration at 0.1 h / concentration at 1.5 h / concentration at 24 h / BAV (%): mean; for Kp at 6 h / Kp at 0.1 h / Kp at 1.5 h: lung/plasma
PDGFRβ [3] = molecular target: T1, PDGFRβ (Homo sapiens (Human), UniProt P09619); test: PDGF-BB induced phosphorylation of PDGFRβ in fibroblasts (MRC5 cells, HTRF); format: cell-based; conditions: MRC5 cells; n = 1 unless otherwise indicated; read-out: PDGFBB-induced PDGFRβ phosphorylation in MRC5 cells (IC50)
PDGFRβ [4] = molecular target: T1, PDGFRβ; test: Duration of action (washout) against PDGF-BB induced phosphorylation of PDGFRβ in human fetal lung fibroblast cells; format: cell-based; conditions: MRC-5 cells; for % phos: percentage phosphorylation after wash-out relative to maximal phosphorylation (100%): rhuPDGF-BB, experiments in Groups 1-4
PAMPA permeability assay = format: in vitro ADME; conditions: PAMPA; for recovery at 5 hr, 10 μM: pH 7, PAMPA, donor and acceptor compartments; for Papp at 5 h, 10 μM: pH 7, pH 7, 10 μM
PDGFRβ [5] = molecular target: T1, PDGFRβ; conditions: read-out: Ki PDGFRβ; mean, n = 2 unless otherwise indicated
[6] = male, CD, iv, i.v. dosing, 0.1 h
[7] = male, CD, iv, i.v. dosing, 1.5 h
[8] = male, CD, iv, i.v. dosing, 24 h
[9] = male, CD, other: intra-tracheal, i.t. dosing, 0.1 h
[10] = male, CD, other: intra-tracheal, i.t. dosing, 1.5 h
[11] = male, CD, other: intra-tracheal, i.t. dosing, 24 h
[12] = male, CD, iv, i.v. dosing, 0.1 h, read-out: lung/plasma ratio at time(h)
[13] = male, CD, iv, i.v. dosing, 1.5 h, read-out: lung/plasma ratio at time(h)
[14] = male, CD, other: intra-tracheal, i.t. dosing, 0.1 h, read-out: lung/plasma conc ratio at time(h)
[15] = male, CD, other: intra-tracheal, i.t. dosing, 1.5 h, read-out: lung/plasma conc ratio at time(h)

T1 sequence (P09619 33-1106): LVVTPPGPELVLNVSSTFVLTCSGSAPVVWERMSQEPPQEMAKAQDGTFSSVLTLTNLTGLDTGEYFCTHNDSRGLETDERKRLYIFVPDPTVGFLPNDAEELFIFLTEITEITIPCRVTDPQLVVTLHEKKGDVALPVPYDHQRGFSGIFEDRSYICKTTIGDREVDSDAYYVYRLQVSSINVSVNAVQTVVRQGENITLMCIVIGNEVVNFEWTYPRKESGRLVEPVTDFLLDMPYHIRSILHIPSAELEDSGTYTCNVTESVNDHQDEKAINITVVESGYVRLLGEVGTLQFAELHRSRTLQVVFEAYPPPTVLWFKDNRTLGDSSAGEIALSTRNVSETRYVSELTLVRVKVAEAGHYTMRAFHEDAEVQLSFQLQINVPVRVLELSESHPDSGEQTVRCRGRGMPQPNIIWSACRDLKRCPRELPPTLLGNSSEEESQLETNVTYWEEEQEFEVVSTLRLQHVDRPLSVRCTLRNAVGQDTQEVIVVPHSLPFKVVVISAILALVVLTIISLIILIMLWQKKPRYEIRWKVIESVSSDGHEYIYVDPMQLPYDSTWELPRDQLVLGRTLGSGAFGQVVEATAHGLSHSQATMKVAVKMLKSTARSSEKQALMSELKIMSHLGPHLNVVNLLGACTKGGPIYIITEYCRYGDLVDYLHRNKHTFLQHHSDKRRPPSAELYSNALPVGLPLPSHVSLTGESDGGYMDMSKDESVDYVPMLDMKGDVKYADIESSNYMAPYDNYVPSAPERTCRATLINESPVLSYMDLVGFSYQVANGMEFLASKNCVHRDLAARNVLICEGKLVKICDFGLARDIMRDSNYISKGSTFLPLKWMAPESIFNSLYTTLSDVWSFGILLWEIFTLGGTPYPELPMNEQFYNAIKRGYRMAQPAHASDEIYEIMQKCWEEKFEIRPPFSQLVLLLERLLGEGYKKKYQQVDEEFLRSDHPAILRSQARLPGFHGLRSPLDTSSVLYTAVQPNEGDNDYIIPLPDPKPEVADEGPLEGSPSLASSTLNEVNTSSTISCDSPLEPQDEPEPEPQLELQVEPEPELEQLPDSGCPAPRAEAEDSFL
Sequence of VEGFR2 (P35968 20-1356): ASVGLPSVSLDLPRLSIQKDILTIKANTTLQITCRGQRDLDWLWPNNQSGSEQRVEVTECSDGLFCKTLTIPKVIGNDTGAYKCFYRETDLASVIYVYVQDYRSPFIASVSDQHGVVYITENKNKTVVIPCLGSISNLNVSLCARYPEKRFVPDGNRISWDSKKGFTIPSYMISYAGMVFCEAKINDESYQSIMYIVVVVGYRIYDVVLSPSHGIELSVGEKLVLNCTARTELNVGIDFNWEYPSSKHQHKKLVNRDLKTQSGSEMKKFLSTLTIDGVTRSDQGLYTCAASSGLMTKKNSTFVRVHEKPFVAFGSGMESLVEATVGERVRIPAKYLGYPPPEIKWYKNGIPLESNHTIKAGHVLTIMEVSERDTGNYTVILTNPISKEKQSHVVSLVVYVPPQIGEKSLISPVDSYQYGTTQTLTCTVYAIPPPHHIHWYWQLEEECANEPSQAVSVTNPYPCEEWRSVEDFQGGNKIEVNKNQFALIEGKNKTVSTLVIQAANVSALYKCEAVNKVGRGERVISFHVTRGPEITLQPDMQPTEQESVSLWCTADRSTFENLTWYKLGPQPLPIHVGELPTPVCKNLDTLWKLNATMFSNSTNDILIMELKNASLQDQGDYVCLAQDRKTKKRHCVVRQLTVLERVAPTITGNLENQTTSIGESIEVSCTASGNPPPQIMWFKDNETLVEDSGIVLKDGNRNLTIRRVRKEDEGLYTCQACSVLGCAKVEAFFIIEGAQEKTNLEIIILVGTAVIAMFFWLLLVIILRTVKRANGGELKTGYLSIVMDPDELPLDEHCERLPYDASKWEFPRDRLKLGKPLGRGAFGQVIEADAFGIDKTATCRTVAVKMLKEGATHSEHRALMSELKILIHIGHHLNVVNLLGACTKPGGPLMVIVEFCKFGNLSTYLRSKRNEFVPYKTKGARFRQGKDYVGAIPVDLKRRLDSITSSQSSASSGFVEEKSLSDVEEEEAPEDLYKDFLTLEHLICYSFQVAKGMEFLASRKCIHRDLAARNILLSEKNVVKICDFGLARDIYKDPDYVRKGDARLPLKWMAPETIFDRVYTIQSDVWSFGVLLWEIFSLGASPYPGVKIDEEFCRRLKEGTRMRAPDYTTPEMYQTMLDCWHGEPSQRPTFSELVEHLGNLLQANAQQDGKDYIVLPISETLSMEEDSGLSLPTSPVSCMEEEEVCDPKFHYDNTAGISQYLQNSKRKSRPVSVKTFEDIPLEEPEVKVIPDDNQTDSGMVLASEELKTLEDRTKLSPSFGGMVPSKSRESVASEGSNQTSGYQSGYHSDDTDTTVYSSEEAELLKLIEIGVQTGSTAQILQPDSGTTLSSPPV

SMILES: COC(=O)c1ccc2c(c1)NC(=O)/C2=C(\Nc1ccc(C(=O)N(C)OC)cc1)c1ccccc1 [Example 1, (Z)-Methyl 3-(((4-(methoxy(methyl)carbamoyl)phenyl)amino)(phenyl)methylene)-2-oxoindoline-6-carboxylate]
- IC50 (VEGFR2): 32.2 nM
- Cell viability at 100 nM (%) (MRC5 cells): 116.6%
- Cell viability at 300 nM (%) (MRC5 cells): 97 (n = 2) %
- Cell viability at 1000 nM (%) (MRC5 cells): 87 (n = 2) %

SMILES: COC(=O)c1cc2c(cc1C)/C(=C(/Nc1ccc(C(=O)NOCCN3CCN(C)CC3)cc1)c1ccccc1)C(=O)N2 [Example 6, (Z)-Methyl 5-methyl-3-(((4-((2-(4-methylpiperazin-1-yl)ethoxy)carbamoyl)phenyl)amino)(phenyl)methylene)-2-oxoindoline-6-carboxylate]
- concentration at 0.1 h [1, 6]: 2990 nM
- concentration at 1.5 h [1, 7]: 1880 nM
- concentration at 24 h [1, 8]: 173 nM
- concentration at 0.1 h [1, 9]: 30400 nM
- concentration at 1.5 h [1, 10]: 11900 nM
- concentration at 24 h [1, 11]: 4720 nM
- Kp at 0.1 h [1, 12]: 103
- Kp at 1.5 h [1, 13]: 315
- Kp at 24 h ([1]; male, CD, iv, i.v. dosing, 24 h, read-out: lung/plasma ratio at time(h)): 198
- Kp at 0.1 h [1, 14]: 288
- Kp at 1.5 h [1, 15]: 2890
- Kp at 24 h ([1]; male, CD, other: intra-tracheal, i.t. dosing, 24 h, read-out: lung/plasma conc ratio at time(h)): 3280
- MRT ([1]; male, CD, plasma, iv, i.v. dosing): 7.9 h
- clearance ([1]; male, CD, plasma, iv, i.v. dosing (i.v. dose 0.1-0.5 per compound)): 132 mL/min/kg
- Vd ([1]; male, CD, plasma, iv, i.v. dosing, read-out: Vss): 63 L/kg
- half-life ([1]; male, CD, plasma, iv, i.v. dosing, read-out: t½ (converted)): 8.1 h
- Lung conc i.t./i.v. Ratio at time (h) ([1]; 0.1 h): 10.2
- Lung conc i.t./i.v. Ratio at time (h) ([1]; 1.5 h): 6.3
- Lung conc i.t./i.v. Ratio at time (h) ([1]; 24 h): 27.3
- i.t. BAV (%) ([1]; i.t. dosing (i.t. dose 0.1-0.5 per compound)): 115%
- BAL % administered dose at time (h) ([1]; i.t. dosing, 0.1 h): 6%
- BAL % administered dose at time (h) ([1]; i.t. dosing, 1.5 h): 3%
- BAL % administered dose at time (h) ([1]; i.t. dosing, 24 h): 0.1%
- BAL % administered dose at time (h) ([1]; i.v. dosing, 0.1 h): 0.06%
- BAL % administered dose at time (h) ([1]; i.v. dosing, 1.5 h): 0.03%
- BAL % administered dose at time (h) ([1]; i.v. dosing, 24 h): BQL
- Oral BAV (%) ([1]; oral dose 3 mg/kg): <1%
- concentration at 6 h ([2]; iv, 0.2 mg/kg, i.v. dosing, 6 h): 46 nM
- concentration at 0.1 h ([2]; iv, i.v. dosing, 0.1 h): 580 nM
- concentration at 1.5 h ([2]; iv, i.v. dosing, 1.5 h): 168 nM
- concentration at 24 h ([2]; iv, i.v. dosing, 24 h): 13 nM
- concentration at 0.1 h ([2]; other: intra-nasal, i.n. dosing, 0.1 h): 1490 nM
- concentration at 1.5 h ([2]; other: intra-nasal, i.n. dosing, 1.5 h): 986 nM
- concentration at 6 h ([2]; other: intra-nasal, i.n. dosing, 6 h): 258 nM
- concentration at 24 h ([2]; other: intra-nasal, i.n. dosing, 24 h): 84 nM
- Kp at 6 h ([2]; iv, 0.2 mg/kg, i.v. dosing, 6 h, read-out: lung/plasma ratio at time(h)): 65
- Kp at 0.1 h ([2]; iv, i.v. dosing, 0.1 h, read-out: lung/plasma ratio at time(h)): 11
- Kp at 1.5 h ([2]; iv, i.v. dosing, 1.5 h, read-out: lung/plasma ratio at time(h)): 40
- Kp at 0.1 h ([2]; other: intra-nasal, i.n. dosing, 0.1 h, read-out: lung/plasma conc ratio at time(h)): 79
- Kp at 1.5 h ([2]; other: intra-nasal, i.n. dosing, 1.5 h, read-out: lung/plasma conc ratio at time(h)): 398
- Kp at 6 h ([2]; other: intra-nasal, i.n. dosing, 6 h, read-out: lung/plasma conc ratio at time(h)): 607
- Lung conc i.n./i.v. Ratio at time (h) ([2]; 0.1 h): 2.6
- Lung conc i.n./i.v. Ratio at time (h) ([2]; 1.5 h): 5.9
- Lung conc i.n./i.v. Ratio at time (h) ([2]; 6 h): 5.6
- Lung conc i.n./i.v. Ratio at time (h) ([2]; 24 h): 6.5
- BAV (%) ([2]; i.n. dosing (i.n. dose 1 nintedanib, 0.2 examples)): ~50%
- BAL % administered dose at time (h) ([2]; i.n. dosing, 0.1 h): 1%
- BAL % administered dose at time (h) ([2]; i.n. dosing, 1.5 h): 0.3%
- BAL % administered dose at time (h) ([2]; i.n. dosing, 6 h): 0.1%
- BAL % administered dose at time (h) ([2]; i.n. dosing, 24 h): 0.04%
- BAL % administered dose at time (h) ([2]; i.v. dosing, 0.1 h): 0.1%
- BAL % administered dose at time (h) ([2]; i.v. dosing, 1.5 h): 0.01%
- BAV (%) ([2]; oral dosing (oral dose 60 mg/kg nintedanib, 10 mg/kg examples)): <5%
- IC50 (PDGFRβ [3]): 6.95 nM
- % phos: percentage phosphorylation after wash-out relative to maximal phosphorylation (100%) (PDGFRβ [4]): 31.6%
- Duration of action as inhibitors of PDGFRβ compared with nintedanib (PDGFRβ [4]; wash-out): longer duration of action
- Cell viability at 100 nM (%) (MRC5 cells): 98.1%
- Cell viability at 300 nM (%) (MRC5 cells): 88.5%
- Cell viability at 1000 nM (%) (MRC5 cells): 77%
- recovery at 5 hr, 10 μM (PAMPA permeability assay): 42%
- Papp at 5 h, 10 μM (PAMPA permeability assay): 0.00649 ×10⁻⁶ cm/s
- Ki (PDGFRβ [5]): 8.31 nM

SMILES: COC(=O)c1cc2c(cc1C)/C(=C(/Nc1ccc(C(=O)NOCCN3CCN(CCO)CC3)cc1)c1ccccc1)C(=O)N2 [Example 7, (Z)-Methyl 3-(((4-((2-(4-(2-hydroxyethyl)piperazin-1-yl)ethoxy)carbamoyl)phenyl)amino)(phenyl)methylene)-5-methyl-2-oxoindoline-6-carboxylate]
- concentration at 6 h ([1]; male, CD, iv, 0.1 mg/kg, i.v. dosing, 6 h): 69 nM
- concentration at 0.1 h [1, 6]: 329 nM
- concentration at 1.5 h [1, 7]: 172 nM
- concentration at 24 h [1, 8]: 30 nM
- concentration at 0.1 h [1, 9]: 2100 nM
- concentration at 1.5 h [1, 10]: 881 nM
- concentration at 6 h ([1]; male, CD, other: intra-tracheal, i.t. dosing, 6 h): 1000 nM
- concentration at 24 h [1, 11]: 519 nM
- Kp at 6 h ([1]; male, CD, iv, 0.1 mg/kg, i.v. dosing, 6 h, read-out: lung/plasma ratio at time(h)): 10
- Kp at 0.1 h [1, 12]: 17
- Kp at 1.5 h [1, 13]: 15
- Kp at 0.1 h [1, 14]: 233
- Kp at 1.5 h [1, 15]: 114
- Kp at 6 h ([1]; male, CD, other: intra-tracheal, i.t. dosing, 6 h, read-out: lung/plasma conc ratio at time(h)): 114
- Lung conc i.t./i.v. Ratio at time (h) ([1]; 0.1 h): 6
- Lung conc i.t./i.v. Ratio at time (h) ([1]; 1.5 h): 5
- Lung conc i.t./i.v. Ratio at time (h) ([1]; 6 h): 15
- Lung conc i.t./i.v. Ratio at time (h) ([1]; 24 h): 17
- BAL % administered dose at time (h) ([1]; i.t. dosing, 0.1 h): 5.3%
- BAL % administered dose at time (h) ([1]; i.t. dosing, 1.5 h): 0.2%
- BAL % administered dose at time (h) ([1]; i.t. dosing, 6 h): 0.3%
- BAL % administered dose at time (h) ([1]; i.t. dosing, 24 h): 0.1%
- BAL % administered dose at time (h) ([1]; i.v. dosing, 0.1 h): BLQ
- BAL % administered dose at time (h) ([1]; i.v. dosing, 1.5 h): BLQ
- BAL % administered dose at time (h) ([1]; i.v. dosing, 6 h): BLQ
- BAL % administered dose at time (h) ([1]; i.v. dosing, 24 h): BLQ
- IC50 (PDGFRβ [3]): 10.4 nM
- % phos: percentage phosphorylation after wash-out relative to maximal phosphorylation (100%) (PDGFRβ [4]): 84.7%
- Cell viability at 100 nM (%) (MRC5 cells): 90.7%
- Cell viability at 300 nM (%) (MRC5 cells): 98%
- Cell viability at 1000 nM (%) (MRC5 cells): 86.8%
- recovery at 5 hr, 10 μM (PAMPA permeability assay): 58.1%
- Papp at 5 h, 10 μM (PAMPA permeability assay): 0.0245 ×10⁻⁶ cm/s
- Ki (PDGFRβ [5]): 6.6 nM

Source: patent US11046672B2, “Indolinones compounds and their use in the treatment of fibrotic diseases” (RESPIVERT LIMITED, priority 2015, dated 2021)
